Usually pIC50 stands for −log10 of the IC50, conventionally taken in molar units.

In patent US10273224B2, “Substituted pyrimidine compounds, compositions and medicinal applications thereof” (JUBILANT BIOSYS LIMITED, priority 2013, dated 2019) one finds IC50 data, which are given here for 27 compounds.

pIC50: −log10 of the molar value. Structures can show the parent of a compound that is named as a salt.

The target in this assay is T1, EGFR (L858R & T790M) (Homo sapiens, UniProt P00533, L858R/T790M).
T1 construct: GST; purchased Proqinase
T1 sequence (P00533 25-1210 T790M/L858R): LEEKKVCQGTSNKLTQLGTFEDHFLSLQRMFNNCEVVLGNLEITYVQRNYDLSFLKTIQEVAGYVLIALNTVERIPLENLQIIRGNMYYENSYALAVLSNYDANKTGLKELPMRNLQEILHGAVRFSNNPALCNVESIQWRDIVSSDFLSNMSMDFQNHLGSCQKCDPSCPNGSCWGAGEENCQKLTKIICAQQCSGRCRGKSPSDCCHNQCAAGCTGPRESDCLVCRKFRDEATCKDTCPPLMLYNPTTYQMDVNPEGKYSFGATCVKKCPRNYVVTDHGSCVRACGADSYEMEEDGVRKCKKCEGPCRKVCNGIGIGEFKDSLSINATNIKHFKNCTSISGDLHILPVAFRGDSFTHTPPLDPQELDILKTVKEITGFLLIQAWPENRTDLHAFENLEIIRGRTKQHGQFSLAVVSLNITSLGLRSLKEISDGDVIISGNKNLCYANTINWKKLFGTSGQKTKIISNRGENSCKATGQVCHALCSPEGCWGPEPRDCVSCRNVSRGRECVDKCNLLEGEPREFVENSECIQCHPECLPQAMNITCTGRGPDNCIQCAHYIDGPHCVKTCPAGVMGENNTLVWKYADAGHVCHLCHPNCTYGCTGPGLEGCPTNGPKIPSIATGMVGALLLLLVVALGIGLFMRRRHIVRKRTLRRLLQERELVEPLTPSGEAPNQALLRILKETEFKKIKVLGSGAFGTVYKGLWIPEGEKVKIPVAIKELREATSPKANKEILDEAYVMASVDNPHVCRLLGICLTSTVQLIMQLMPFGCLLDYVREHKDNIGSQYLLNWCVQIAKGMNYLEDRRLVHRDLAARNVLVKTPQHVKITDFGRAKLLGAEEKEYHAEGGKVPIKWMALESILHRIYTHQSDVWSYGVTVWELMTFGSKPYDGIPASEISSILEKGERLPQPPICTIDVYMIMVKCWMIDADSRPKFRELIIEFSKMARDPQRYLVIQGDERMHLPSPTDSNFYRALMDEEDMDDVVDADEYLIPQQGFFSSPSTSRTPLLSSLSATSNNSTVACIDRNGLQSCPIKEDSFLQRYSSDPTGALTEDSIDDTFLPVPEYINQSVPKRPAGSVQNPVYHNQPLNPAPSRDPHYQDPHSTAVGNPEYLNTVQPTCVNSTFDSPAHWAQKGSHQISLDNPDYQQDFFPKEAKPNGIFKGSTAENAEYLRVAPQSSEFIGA
Briefly: EGFR (L858R & T790M) inhibition assay, HTRF method. The conditions noted are these: biochemical HTRF; EGFR (T790M/L858R) 2.5 nM, ATP 5 μM, 60 min room temperature. On the procedure: Example 25: Biological Activity: EGFR T790M Assay Protocol
The objective of the experiment is to find the IC50 for the compounds using HTRF method.
Reagents for Enzyme Assay:
1. Enzyme Assay Buffer: 60 mM HEPES (pH 7.4), 50 mM NaCl, 20 mM MgCl2, 5 mM MnCl2, filter using 0.2 µm pore size, store at 4° C.
Supplements (add fresh to the enzyme buffer): Make 1M DTT stock, 5% BSA stock and 0.1M Na3OV4 stored at 4° C. Enzyme assay buffer 50 ml, 1 M DTT 100 μl, 5% BSA 500 μl, 0.1M Na3OV4 50 μl.
2. GST-hEGFR (L858R), active: EGFR (T790M/L858R), active (Proqinase), 3.6 μM stock; 2.5 nM in final assay.
3. Gastrin Precusor-Biotinylated: Gastrin precursor (Tyr87) biotinylated peptide (EEAY*GWM), Cell Signaling Tech 1310, Lot-7, Want final 0.5 μM in assay
4. ATP: 10 mM stock in 100 μl Enzyme assay buffer pH 7.4 prepared freshly, want 5 μM in final assay.
5. Test compounds: Dissolve powders in 100% DMSO to a final stock concentration of 10 mM (volume in μL to add for 10 mM=mg powder×10^5/MW). Final comp concentration in the assay plate is starting at 10 μM.
1. HTRF buffer: 50 mM Tris-HCl, pH-7.5, 100 mM NaCl, 0.1% BSA, 0.05% Tween20, 0.5 mM EDTA, filter using 0.2 µm pore size, store at 4° C.
Phycolink® Streptavidin-Allophycocyanin (SA-APC) Prozyme, Cat. #PJ25S, Lot #896 085, 2.06 mg/mL, APC concentration is 11.6 μM, streptavidin concentration is 15.5 μM. Want 12 nM final in assay (based on streptavidin concentration).
2. Europium-W1024-PT-66 Anti Phospho Tyrosine Antibody: Perkin Elmer (AD0068), monoclonal IgG1 that recognizes phospho tyrosine peptide 100 μg/ml stock. Want 0.1 nM final in assay.
• 1. Make the compound dilution by TECAN as per the above scheme. • 2. Add 16 μl of diluted compound to the assay plate by using TECAN • 3. Add 10 μl of enzyme mix to each well except mins. • 4. Add 20 μl of substrate and ATP mix into each well of the assay plate manually. • 5. Incubate the plate at room temperature for 60 min with shaking. • 6. Meanwhile prepare the HTRF mix and add 75 μl to the HTRF plate. • 7. When the incubation is over, transfer 10 μl of the reaction mixture to the HTRF assay plate and incubate for 30 min at room temperature with shaking. • 8. Take the reading in Pherastar (ext 337 nm, em 665 & 620 nm). • 9. Analyze the results using Graphpad prism after calculation the z factor, signal window and % inhibition to get the IC50.
Compounds having IC50<10 nM are designated as “A”; 10-100 nM are designated as “B”; and >100 nM as “C”.
Turning to `C=CC(=O)Nc1cccc(Nc2nc(Nc3cnn(C4CCN(C)CC4)c3)ncc2F)c1` [Compound I-18, N-(3-((5-fluoro-2-((1-(1-methylpiperidin-4-yl)-1H-pyrazol-4-yl)amino)pyrimidin-4-yl)amino)phenyl)acrylamide], the pIC50 is 7.00 to 8.00.

As for `CN(C)C/C=C/C(=O)N[C@@H]1CCC[C@@H](CNc2nc(Nc3cnn(C)c3)ncc2Cl)C1` (single isomer, unassigned) [I-102 (diastereomer 1)], the pIC50 was < 7.00. The same measure for `C=CC(=O)Nc1cccc(Oc2nc(Nc3c(C)nn(C4CCN(C)CC4)c3C)ncc2Cl)c1` [Compound I-83, N-(3-((5-chloro-2-((3,5-dimethyl-1-(1-methylpiperidin-4-yl)-1H-pyrazol-4-yl)amino)pyrimidin-4-yl)oxy)phenyl)acrylamide]: < 7.00; for `C=CC(=O)N[C@@H]1CCC[C@H](Nc2nc(Nc3cnn(C)c3)ncc2Cl)C1` (single isomer, unassigned) [I-105 (Enantiomer 4)]: < 7.00; for `CN(C)C/C=C/C(=O)N1CCCC(Nc2nc(Nc3cnn(C)c3)ncc2Cl)C1` (single isomer, unassigned) [II-4 (Enantiomer 2), (E)-1-(3-((5-chloro-2-((1-methyl-1H-pyrazol-4-yl)amino)pyrimidin-4-yl)amino)piperidin-1-yl)-4-(dimethylamino)but-2-en-1-one]: < 7.00.

As for `C=CC(=O)N1CCCC(CNc2nc(Nc3cnn(C)c3)ncc2Cl)C1` (stereo not drawn) [II-9, 1-(3-(((5-chloro-2-((1-methyl-1H-pyrazol-4-yl)amino)pyrimidin-4-yl)amino)methyl)piperidin-1-yl)prop-2-en-1-one], the pIC50 was < 7.00. Turning to `CN(C)C/C=C/C(=O)N[C@H]1CCC[C@H](CNc2nc(Nc3cnn(C)c3)ncc2Cl)C1` (single isomer, unassigned) [I-103 (diastereomer 2)], the pIC50 is < 7.00. On to `C=CC(=O)Nc1cccc(Nc2nc(Nc3cnn(C4CCN(C)CC4)c3)ncc2Cl)c1` [Compound I-1, N-(3-((5-chloro-2-((1-(1-methylpiperidin-4-yl)-1H-pyrazol-4-yl)amino)pyrimidin-4-yl)amino)phenyl)acrylamide], for which the pIC50 is > 8.00. The result for `C=CC(=O)Nc1ccc(F)c(Nc2nc(Nc3cn(C)nc3C)ncc2Cl)c1` (single isomer, unassigned) [Compound I-70, N-(3-((5-chloro-2-((1,3-dimethyl-1H-pyrazol-4-yl)amino)pyrimidin-4-yl)amino)-4-fluorophenyl)acrylamide] reads > 8.00. The same measure for `C=CC(=O)NC1CCC(Nc2nc(Nc3cnn(C)c3)ncc2Cl)CC1` (stereo not drawn) [Compound I-94, N-(4-((5-chloro-2-((1-methyl-1H-pyrazol-4-yl)amino)pyrimidin-4-yl)amino)cyclohexyl)acrylamide]: < 7.00. `C=CC(=O)Nc1cccc(Nc2nc(Nc3cc(COC)n(C)n3)ncc2Cl)c1` [Compound I-24, N-(3-((5-chloro-2-((5-(methoxymethyl)-1-methyl-1H-pyrazol-3-yl)amino)pyrimidin-4-yl)amino)phenyl)acrylamide]: the pIC50 is 7.00 to 8.00. For the compound `C=CC(=O)N1CCCC(Nc2nc(Nc3cnn(C4CCC4)c3)ncc2Cl)C1` (single isomer, unassigned) [II-5 (Enantiomer 1), 1-(3-((5-chloro-2-((1-cyclobutyl-1H-pyrazol-4-yl)amino)pyrimidin-4-yl)amino)piperidin-1-yl)prop-2-en-1-one], the pIC50 was < 7.00.

As for `CN(C)C/C=C/C(=O)Nc1cccc(Nc2nc(Nc3cnn(C4CCN(C)CC4)c3)ncc2Cl)c1` [Compound I-53, (E)-N-(3-((5-chloro-2-((1-(1-methylpiperidin-4-yl)-1H-pyrazol-4-yl)amino)pyrimidin-4-yl)amino)phenyl)-4-(dimethylamino)but-2-enamide], the pIC50 is < 7.00.

On to `C=CC(=O)NCC1CCCC(Nc2nc(Nc3cnn(C)c3)ncc2Cl)C1` (stereo not drawn) [Compound I-108, N-((3-((5-chloro-2-((1-methyl-1H-pyrazol-4-yl)amino)pyrimidin-4-yl)amino)cyclohexyl)methyl)acrylamide], for which the pIC50 was < 7.00. The result for `C=CC(=O)Nc1cccc(Nc2nc(Nc3cnn(C)c3)ncc2Cl)n1` [Compound I-75, N-(6-((5-chloro-2-((1-methyl-1H-pyrazol-4-yl)amino)pyrimidin-4-yl)amino)pyridin-2-yl)acrylamide] reads 7.00 to 8.00.

As for `C=CC(=O)NC1CCCC(Nc2nc(Nc3cnn(CCN(C)C)c3)ncc2Cl)C1` (stereo not drawn) [Compound I-99, N-(3-((5-chloro-2-((1-(2-(dimethylamino)ethyl)-1H-pyrazol-4-yl)amino)pyrimidin-4-yl)amino)cyclohexyl)acrylamide], the pIC50 is < 7.00. `C=CC(=O)NC1CCCC(Oc2nc(Nc3cnn(C)c3)ncc2Cl)C1` (single isomer, unassigned) [I-89 (Isomer 2), N-(3-((5-chloro-2-((1-methyl-1H-pyrazol-4-yl)amino)pyrimidin-4-yl)oxy)cyclohexyl)acrylamide]: the pIC50 is < 7.00. The result for `C=CC(=O)Nc1cccc(Nc2nc(Nc3cnn(S(=O)(=O)C4CC4)c3)ncc2Cl)c1` [Compound I-22, N-(3-((5-chloro-2-((1-(cyclopropylsulfonyl)-1H-pyrazol-4-yl)amino)pyrimidin-4-yl)amino)phenyl)acrylamide] reads 7.00 to 8.00; that for `C=CC(=O)Nc1cccc(Nc2nc(Nc3cnn(CC(C)(C)O)c3)ncc2Cl)c1` [Compound I-17, N-(3-((5-chloro-2-((1-(2-hydroxy-2-methylpropyl)-1H-pyrazol-4-yl)amino)pyrimidin-4-yl)amino)phenyl)acrylamide], < 7.00; that for `C=CC(=O)Nc1cccc(Nc2nc(Nc3cnn(C4CC5CCC(C4)N5C)c3)ncc2Cl)c1` (stereo not drawn) [Compound I-48, N-(3-((5-chloro-2-((1-(8-methyl-8-azabicyclo[3.2.1]octan-3-yl)-1H-pyrazol-4-yl)amino)pyrimidin-4-yl)amino)phenyl)acrylamide], 7.00 to 8.00. Consider `CN1CCC(n2cc(Nc3ncc(Cl)c(Nc4cccc(NC(=O)C=C5CCC5)c4)n3)cn2)CC1` [Compound I-29, N-(3-((5-chloro-2-((1-(1-methylpiperidin-4-yl)-1H-pyrazol-4-yl)amino)pyrimidin-4-yl)amino)phenyl)-2-cyclobutylideneacetamide], for which the pIC50 is < 7.00. The same measure for `C=CC(=O)Nc1cccc(N(C)c2nc(Nc3cnn(C4CCN(C)CC4)c3)ncc2Cl)c1` [Compound I-72, N-(3-((5-chloro-2-((1-(1-methylpiperidin-4-yl)-1H-pyrazol-4-yl)amino)pyrimidin-4-yl)(methyl)amino)phenyl)acrylamide]: 7.00 to 8.00. Turning to `C=CC(=O)Nc1cccc(Oc2nc(Nc3cnn(CC4CC4)c3)ncc2Cl)c1` [Compound I-82, N-(3-((5-chloro-2-((1-(cyclopropylmethyl)-1H-pyrazol-4-yl)amino)pyrimidin-4-yl)oxy)phenyl)acrylamide], the pIC50 is 7.00 to 8.00.

On to `C=CC(=O)Nc1cccc(Nc2nc(Nc3cnn(C4CCNCC4)c3)ncc2Cl)c1` [Compound I-62, N-(3-((5-chloro-2-((1-(piperidin-4-yl)-1H-pyrazol-4-yl)amino)pyrimidin-4-yl)amino)phenyl)acrylamide trifluoroacetate], for which the pIC50 was > 8.00. For the compound `C=CC(=O)N1CCCC(Nc2nc(Nc3cnn(C)c3)ncc2Cl)C1` (single isomer, unassigned) [II-1 (Enantiomer 1), 1-(3-((5-chloro-2-((1-methyl-1H-pyrazol-4-yl)amino)pyrimidin-4-yl)amino)piperidin-1-yl)prop-2-en-1-one], the pIC50 is < 7.00. Consider `C=CC(=O)Nc1cccc(Nc2nc(Nc3cnn(CCO)c3)ncc2Cl)c1` [Compound I-21, N-(3-((5-chloro-2-((1-(2-hydroxyethyl)-1H-pyrazol-4-yl)amino)pyrimidin-4-yl)amino)phenyl)acrylamide], for which the pIC50 was > 8.00. Regarding `C=CC(=O)Nc1cccc(Nc2nc(Nc3cnn(C4CCC(O)C4)c3)ncc2F)c1` (stereo not drawn) [Compound I-37, N-(3-((5-fluoro-2-((1-(3-hydroxycyclopentyl)-1H-pyrazol-4-yl)amino)pyrimidin-4-yl)amino)phenyl)acrylamide], the pIC50 was < 7.00.
